Type in all cases: biochemical
In experiment [1] the target is T1, fibrinogen (Homo sapiens, UniProt P02671+P02675+P02679).
T1 construct: pooled patient plasma (P-Pool, n=32 single plasmas); from tissue; host or cells: pooled citrated patient plasma (P-Pool, Fbgen-Pool-Plasma)
T1 sequence (P02671 20-644 isoform P02671-2 limits assumed): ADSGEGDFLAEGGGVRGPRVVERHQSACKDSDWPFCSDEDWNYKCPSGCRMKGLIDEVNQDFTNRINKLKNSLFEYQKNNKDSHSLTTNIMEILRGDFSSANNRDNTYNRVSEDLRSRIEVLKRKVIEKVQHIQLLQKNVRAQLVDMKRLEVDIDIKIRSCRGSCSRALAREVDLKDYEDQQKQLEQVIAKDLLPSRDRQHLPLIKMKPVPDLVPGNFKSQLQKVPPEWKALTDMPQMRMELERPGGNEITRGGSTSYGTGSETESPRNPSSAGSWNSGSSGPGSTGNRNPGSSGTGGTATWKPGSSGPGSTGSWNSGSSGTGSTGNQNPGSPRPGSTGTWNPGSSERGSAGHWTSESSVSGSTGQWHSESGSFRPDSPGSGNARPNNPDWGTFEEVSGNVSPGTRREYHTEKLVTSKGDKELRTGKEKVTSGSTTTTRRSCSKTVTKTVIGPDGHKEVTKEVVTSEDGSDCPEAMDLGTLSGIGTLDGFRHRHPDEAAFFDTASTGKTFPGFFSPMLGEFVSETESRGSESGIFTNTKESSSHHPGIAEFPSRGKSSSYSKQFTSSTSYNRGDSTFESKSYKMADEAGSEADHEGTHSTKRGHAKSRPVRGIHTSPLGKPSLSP
T1 sequence (P02675 31-491): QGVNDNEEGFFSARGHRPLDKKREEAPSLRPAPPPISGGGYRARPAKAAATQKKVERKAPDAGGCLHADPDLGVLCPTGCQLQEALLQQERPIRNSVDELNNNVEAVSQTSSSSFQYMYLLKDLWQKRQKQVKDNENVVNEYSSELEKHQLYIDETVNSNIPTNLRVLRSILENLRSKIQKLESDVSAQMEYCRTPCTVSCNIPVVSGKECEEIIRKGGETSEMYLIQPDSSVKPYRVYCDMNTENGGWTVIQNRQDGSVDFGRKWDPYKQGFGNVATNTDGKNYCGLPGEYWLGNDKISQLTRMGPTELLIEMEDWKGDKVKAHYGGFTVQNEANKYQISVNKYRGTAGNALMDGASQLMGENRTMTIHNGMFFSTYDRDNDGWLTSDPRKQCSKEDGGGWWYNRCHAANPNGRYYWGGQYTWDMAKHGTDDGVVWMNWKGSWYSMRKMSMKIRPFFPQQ
T1 sequence (P02679 27-437 isoform P02679-2 limits assumed): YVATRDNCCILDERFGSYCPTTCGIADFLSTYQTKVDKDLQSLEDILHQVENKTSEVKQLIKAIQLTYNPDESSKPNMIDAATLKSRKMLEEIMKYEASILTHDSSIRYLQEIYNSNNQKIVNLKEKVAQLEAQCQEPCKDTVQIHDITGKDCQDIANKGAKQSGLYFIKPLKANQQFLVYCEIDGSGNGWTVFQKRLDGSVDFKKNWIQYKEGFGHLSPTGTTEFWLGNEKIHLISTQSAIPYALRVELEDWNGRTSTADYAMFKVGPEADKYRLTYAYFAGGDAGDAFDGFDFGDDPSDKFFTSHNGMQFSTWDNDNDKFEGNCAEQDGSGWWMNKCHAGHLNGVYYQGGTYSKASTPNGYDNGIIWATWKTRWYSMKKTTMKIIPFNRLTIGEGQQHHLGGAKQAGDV
Put plainly: FIFTA of chloramine-T oxidized / EDTA-supplemented plasma. The settings on record: 60 min RT, P-Pool and EDTA supplemented P-Pool; read-out: chloramine-T concentration that inactivates 50% of fibrinogen in the FIFTA. Here is the method: The absorption at 405 nm is immediately measured (base value) and exactly after 5 min, if the reaction is performed at room temperature (23° C.). If the reaction is performed at 37° C., the second value is measured after 2 min. A microtiterplate reader (Milenia, DPC, Los Angeles, USA) is used. The increase in absorption (ΔA) is determined and the results are standardized against a pooled plasma of known, preferably of 100% of norm, fibrinogen-activity (Table 1).
(§1) 25 μl P-Pool or P-Pool supplemented with 8.6 mM (3.2 g/l) EDTA were incubated with 25 μl 0-89 mM chloramine-T® in PBS for 60 min at RT. Then the FIATA and the FIFTA were performed. For the FIATA, 25 μl PBS were added and the absorbance at 405 nm was determined (base value). 50 μl 4.4 mM vancomycin in PBS were added and after 1 min (RT) the absorbance at 405 nm was determined again (Table 1). […] 100% control=P-Pool without oxidant.
(§2) 25 μl P-Pool was incubated with 25 μl PBS or with 25 μl 2 mM CT in PBS. After 60 min RT, 25 μl 0-172 mM EDTA in PBS was added. After 5 min RT the FIATA and the FIFTA were performed as indicated in 2.7.

In experiment [2] the target is T2, fibrinogen in human plasma (Homo sapiens, UniProt P02671+P02675+P02679).
T2 construct: 200 μl of 256% of norm active fibrinogen in P-Pool; from tissue; host or cells: pooled citrated human patient plasma (P-Pool / Fbgen-Pool)
T2 sequence (P02671 20-629 isoform P02671-2 limits assumed): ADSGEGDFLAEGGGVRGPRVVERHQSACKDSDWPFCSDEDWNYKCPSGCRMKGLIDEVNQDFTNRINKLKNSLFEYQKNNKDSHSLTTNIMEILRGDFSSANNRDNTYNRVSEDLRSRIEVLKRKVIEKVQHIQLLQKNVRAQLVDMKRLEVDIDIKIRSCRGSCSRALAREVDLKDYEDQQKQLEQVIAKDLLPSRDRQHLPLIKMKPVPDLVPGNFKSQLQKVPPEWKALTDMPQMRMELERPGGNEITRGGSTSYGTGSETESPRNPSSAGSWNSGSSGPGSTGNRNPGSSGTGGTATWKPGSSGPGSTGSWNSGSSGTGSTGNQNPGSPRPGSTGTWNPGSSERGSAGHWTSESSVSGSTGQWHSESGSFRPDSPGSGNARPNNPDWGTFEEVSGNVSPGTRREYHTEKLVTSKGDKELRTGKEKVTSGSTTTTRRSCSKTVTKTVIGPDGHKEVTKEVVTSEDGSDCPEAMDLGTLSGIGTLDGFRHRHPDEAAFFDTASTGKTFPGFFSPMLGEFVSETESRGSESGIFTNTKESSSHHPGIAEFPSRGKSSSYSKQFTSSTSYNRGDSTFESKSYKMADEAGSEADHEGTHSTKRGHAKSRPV
T2 sequence (P02675 31-491): T1 sequence (P02675 31-491)
T2 sequence (P02679 27-437 isoform P02679-2 limits assumed): T1 sequence (P02679 27-437 isoform P02679-2 limits assumed)
Put plainly: Inactivation of fibrinogen by vancomycin or chloramine-T (FIFTA read-out). The settings on record: 15 min 37° C. incubation in plasma, then FIFTA; read-out: IC50 against plasmatic fibrinogen. Here is the method:
200 μl of 256% of norm active fibrinogen in P-Pool were incubated with 25 μl 0-100 mM vancomycin or 0-100 mM chloramine-T® in aqua dest. for 15 min (37° C.). 50 μl samples of these reaction mixtures were withdrawn and incubated with 100 μl 200 mIU/ml thrombin, 400 μg/ml Polybrene®, 6% BSA-PBS. The results were standardized by simultaneous analysis of 144% of norm active fibrinogen in P-Pool.

In experiment [3] the test system is fibrinogen. Briefly: FIATA (vancomycin reactivity) of chloramine-T oxidized / EDTA-supplemented plasma. The following applies: EDTA-plasmas oxidized at 10-20 mM chloramine-T. Here is the method: To 25 μl plasma 50 μl PBS are added and the absorbance (405 nm) is determined (base value). Then 50 μl 4.4 mM vancomycin in PBS are added. The absorbance at 405 nm is determined after 2 min, if the reaction is performed at room temperature (23° C.). If the reaction is performed at 37° C., the second value is determined after 1 min. A microtiterplate reader (Milenia, DPC, Los Angeles, USA) is used. The increase in absorption (ΔA) is determined and the results are standardized against a pooled plasma of known, preferably of 100% of norm, fibrinogen-concentration, and against 0.9% NaCl (zero-value of turbidity) (Table 2).
as §1, §2

For experiment [4], the target named is T3, thrombin (Bos taurus, UniProt P00735).
T3 construct: 100 μl 200 mIU/ml thrombin in 6% BSA-PBS (without Polybrene®)
Put plainly: Inhibitory time point 50% (ITP50) of 10 IU/ml heparin-thrombin interaction. The settings on record: 10 IU/ml final heparin. Here is the method: 50 μl P-Pool were incubated with 100 μl 200 miU/ml thrombin in 6% BSA-PBS (without Polybrene®). At 0 min (prior to thrombin addition) and 0.5-11 min reaction time (at RT) 10 μl 160 IU/ml heparin in 6% BSA-PBS was added (final heparin conc. in plasma+thrombin reagent=10 IU/ml; this heparin conc. increased the absorbance by 20 mA; all test results were corrected by this heparin induced turbidity increase). The turbidity increase at 405 nm was determined immediately after each heparin addition step and as a function of incubation time.
To determine the heparin addition time point (at RT) that is needed to decrease the 5 min, 10 min, 15 min or 20 min turbidity increase by 50% (inhibitory time point 50%=ITP), 50 μl P-Pool were incubated with 100 μl 200 mIU/ml thrombin in 6% BSA-PBS (without Polybrene®). After 0 s (prior to thrombin addition) and 10-140 s (in 10 s intervals) 10 μl 160 IU/ml heparin in 6% BSA-PBS were added. The turbidity increase at 405 nm as a function of incubation time (3-20 min) was determined.

Experiment [5] deals with T3, thrombin. Briefly: Inhibitory concentration 50% (IC50) of heparin against thrombin, FIFTA turbidity without Polybrene. The following applies: FIFTA system without Polybrene. Here is the method:
50 μl 100% Pool were added to 10 μl 0-160 IU/ml heparin. 100 μl 200 mIU/ml thrombin in 6% BSA-PBS (without Polybrene®) were added and the increase in absorbance at 405 nm was followed.

For `Cc1ccc(S(=O)(=O)[N-]Cl)cc1.[Na+]` [chloramine-T®, chloramine-T], the IC50 at fibrinogen [1] was 2000 µM; in experiment [2], roughly 2000 µM. Further, in the experiment on fibrinogen [3], the “increase of reactivity with vancomycin, % of the citrate control value” stood at 40%.
For the molecule heparin, at thrombin [4] (RT), the “time window in which heparin can inhibit fibrin generation” value is reported as no more than 2 min. In addition, the “time point of heparin addition that results into a 50% decrease of ΔA (ITP50)” value at thrombin [4] (ΔA at 5-20 min incubation time (RT)) is recorded as “approximately 30 s”. Also, on thrombin [5], the “heparin concentrations that completely inhibit thrombin” value was no less than 0.63 IU/ml.
